Measurements published in US10294243B2, “Bicyclic compounds as pesticides” (BAYER CROPSCIENCE AKTIENGESELLSCHAFT, priority 2014, dated 2019).
Read-outs that look alike come from different tables or passages of the source.

What was measured:
[1] = tested on: Myzus persicae; assay: Myzus persicae - spray test (Chinese cabbage leaf discs); assay type: in vivo; conditions: application rate 500 g/ha, after 6 days; for pest or weed control at 500 g/ha: Myzus persicae, foliar, 144 h, read-out: efficacy (aphids killed)
Experimental: Myzus persicae—Spray Test
Solvent: 78 parts by weight of acetone • • 1.5 parts by weight of dimethylformamide
Emulsifier: alkylaryl polyglycol ether
To produce further test concentrations, the preparation is diluted with emulsifier-containing water.
After 6 days, the efficacy in % is determined 100% means that all the aphids have been killed; 0% means that none of the aphids have been killed.

[2] = log P by HPLC on reversed-phase C18 columns (OECD Guideline 117); method [a] acidic pH 2.7, method [b] neutral pH 7.8; assay type: physicochemical; conditions: for chromatographic logP: reversed-phase C18 HPLC column
[3] = HPLC reversed-phase C18, method [a] acidic pH 2.7
[4] = HPLC reversed-phase C18, method [a] acidic pH 2.7, read-out: logP[a]
[5] = HPLC reversed-phase C18, method [b] neutral pH 7.8, read-out: logP[b]
[6] = HPLC reversed-phase C18, method [b] neutral pH 7.8

Row | Structure (SMILES) | efficacy (aphids killed) [1] [%] | logP[a] [2, 3] | pest or weed control at 500 g/ha [1] [%] | chromatographic logP [2, 4] | chromatographic logP [2, 5] | logP[b] [2, 6]
1 | O=c1c2sc(-c3cccnc3)nc2ncn1Cc1ccncc1 [Compound 36] | 90 | 0.55 |  |  |  | 
2 | CC(C)n1cnc2nc(-c3cccnc3)sc2c1=O [Compound 1, 6-Isopropyl-2-(pyridin-3-yl)[1,3]thiazolo[4,5-d]pyrimidin-7(6H)-one] |  |  | 100 | 1.35 | 1.43 | 
3 | CC[S+]([O-])c1ccccc1-n1cnc2nc(-c3cccnc3)sc2c1=O (stereo not shown) [Compound 67] | 90 | 1.28 |  |  |  | 1.29
4 | Cc1cccc(-n2cnc3nc(-c4cccnc4)sc3c2=O)c1 [Compound 8] | 90 | 1.94 |  |  |  | 1.94
5 | Cc1cc(F)c(-n2cnc3nc(-c4ccc[n+]([O-])c4)sc3c2=O)cc1[S+]([O-])CC(F)(F)F (stereo not shown) [Compound 23, 6-{2-Fluoro-4-methyl-5-[(2,2,2-trifluoroethyl)sulphinyl]phenyl}-2-(1-oxidopyridin-3-yl)[1,3]thiazolo[4,5-d]pyrimidin-7(6H)-one] |  |  | 100 | 1.49 | 1.45 | 
6 | O=c1c2sc(-c3cccnc3)nc2ncn1-c1ccccc1SCC(F)(F)F [Compound 68, 2-(Pyridin-3-yl)-6-{2-[(2,2,2-trifluoroethyl)sulphanyl]phenyl}[1,3]thiazolo[4,5-d]pyrimidin-7(6H)-one] |  |  |  | 2.34 | 2.29 | 
7 | CCSc1ccccc1-n1cnc2nc(-c3cccnc3)sc2c1=O [Compound 66] | 100 | 2.20 |  |  |  | 2.21
8 | O=c1c2sc(-c3cccnc3)nc2ncn1CC1CC1 [Compound 39, 6-(Cyclopropylmethyl)-2-(pyridin-3-yl)[1,3]thiazolo[4,5-d]pyrimidin-7(6H)-one] |  |  | 100 | 1.53 | 1.52 | 
9 | Cc1cc(F)c(-n2cnc3nc(-c4cccnc4)sc3c2=O)cc1[S+]([O-])CC(F)(F)F (stereo not shown) [Compound 22, 6-{2-Fluoro-4-methyl-5-[(2,2,2-trifluoroethyl)sulphinyl]phenyl}-2-(pyridin-3-yl)[1,3]thiazolo[4,5-d]pyrimidin-7(6H)-one] |  |  | 90 | 2.01 | 1.98 | 
10 | Cc1cc(F)c(-n2cnc3nc(-c4cccnc4)sc3c2=O)cc1SCC(=O)N(C)C [Compound 54, 2-({4-Fluoro-2-methyl-5-[7-oxo-2-(pyridin-3-yl)[1,3]thiazolo[4,5-d]pyrimidin-6(7H)-yl]phenyl}sulphanyl)-N,N-dimethylacetamide] |  |  | 100 | 1.9 | 1.91 | 
11 | CC(C)CSc1cccc(-n2cnc3nc(-c4cccnc4)sc3c2=O)c1 [Compound 26] | 90 | 3.18 |  |  |  | 3.08
12 | Cc1cc(F)c(-n2cnc3nc(-c4cccnc4)sc3c2=O)cc1SCC(F)(F)F [Compound 21, 6-{2-Fluoro-4-methyl-5-[(2,2,2-trifluoroethyl)sulphanyl]phenyl}-2-(pyridin-3-yl)[1,3]thiazolo[4,5-d]pyrimidin-7(6H)-one] |  |  | 90 | 2.95 | 2.91 | 
13 | O=c1c2sc(-c3cccnc3)nc2ncn1CC(F)(F)F [Compound 5, 2-(Pyridin-3-yl)-6-(2,2,2-trifluoroethyl)[1,3]thiazolo[4,5-d]pyrimidin-7(6H)-one] |  |  | 100 | 1.54 |  | 
14 | Cc1cc(C)c([S+]([O-])CC(F)(F)F)cc1-n1cnc2nc(-c3cccnc3)sc2c1=O (stereo not shown) [Compound 50, 6-{2,4-Dimethyl-5-[(2,2,2-trifluoroethyl)sulphinyl]phenyl}-2-(pyridin-3-yl)[1,3]thiazolo[4,5-d]pyrimidin-7(6H)-one] |  |  | 100 | 2.06 | 2.01 | 
15 | CN(C)C(=O)Cn1cnc2nc(-c3cccnc3)sc2c1=O [Compound 7] | 100 | 0.65 |  |  |  | 
16 | CSc1cccc(-n2cnc3nc(-c4cccnc4)sc3c2=O)c1 [Compound 13] | 90 | 2.09 |  |  |  | 2.08
17 | CC(C)Cn1cnc2nc(-c3cccnc3)sc2c1=O [Compound 3, 6-Isobutyl-2-(pyridin-3-yl)[1,3]thiazolo[4,5-d]pyrimidin-7(6H)-one] |  |  | 100 | 1.7 |  | 
18 | O=c1c2sc(-c3cccnc3)nc2ncn1-c1cccc(OCC(F)(F)F)c1 [Compound 41] | 90 | 2.33 |  |  |  | 2.34
19 | O=c1c2sc(-c3cccnc3)nc2ncn1CC(F)F [Compound 4] | 100 | 1.19 |  |  |  | 
20 | O=c1c2sc(-c3cccnc3)nc2ncn1C1CC1 [Compound 2] | 100 |  |  |  |  | 1.05

Row | Structure (SMILES) | efficacy (aphids killed) [1] [%] | logP[a] [2, 3] | pest or weed control at 500 g/ha [1] [%] | chromatographic logP [2, 4] | chromatographic logP [2, 5] | logP[b] [2, 6]
21 | Cc1cc(F)c(-n2c(C)nc3nc(-c4cccnc4)sc3c2=O)cc1SCC(F)(F)F [Compound 56, 6-{2-Fluoro-4-methyl-5-[(2,2,2-trifluoroethyl)sulphanyl]phenyl}-5-methyl-2-(pyridin-3-yl)[1,3]thiazolo[4,5-d]pyrimidin-7(6H)-one] |  |  | 90 | 3.25 | 3 | 
22 | Cc1cc(F)c(-n2nnc3nc(-c4cccnc4)sc3c2=O)cc1SCC(F)(F)F [Compound 58, 3-{2-Fluoro-4-methyl-5-[(2,2,2-trifluoroethyl)sulphanyl]phenyl}-6-(pyridin-3-yl)[1,3]thiazolo[4,5-d][1,2,3]triazin-4(3H)-one] |  |  | 90 | 3.45 | 3.32 | 
23 | CSc1cc(-n2cnc3nc(-c4cccnc4)sc3c2=O)ccc1C [Compound 15] | 100 | 2.42 |  |  |  | 2.35
24 | C[S+]([O-])c1cccc(-n2cnc3nc(-c4cccnc4)sc3c2=O)c1 (stereo not shown) [Compound 14] | 90 | 1.04 |  |  |  | 1.09
25 | Cc1cc(C)c(-n2cnc3nc(-c4cncnc4)sc3c2=O)cc1SCC(F)(F)F [Compound 76, 6-{2,4-Dimethyl-5-[(2,2,2-trifluoroethyl)sulphanyl]phenyl}-2-(pyrimidin-5-yl)[1,3]thiazolo[4,5-d]pyrimidin-7(6H)-one] |  |  | 90 | 2.88 | 2.77 | 
26 | CC(c1ncnn1C)n1cnc2nc(-c3cccnc3)sc2c1=O (stereo not shown) [Compound 86] | 90 | 1.01 |  |  |  | 1.07
27 | CSc1cc(-n2cnc3nc(-c4cncc(F)c4)sc3c2=O)ccc1C [Compound 70] | 100 | 2.82 |  |  |  | 2.75
28 | O=c1c2sc(-c3cccnc3)nc2ncn1-c1cc([S+]([O-])CC2CC2)ccc1F (stereo not shown) [Compound 45] | 100 | 1.63 |  |  |  | 1.66
29 | Cc1ccc(-n2cnc3nc(-c4cccnc4)sc3c2=O)cc1[S+](C)[O-] (stereo not shown) [Compound 16] | 90 | 1.25 |  |  |  | 1.26
30 | Cc1ccc(-n2cnc3nc(-c4cccnc4)sc3c2=O)cc1[S+]([O-])CC(F)(F)F (stereo not shown) [Compound 48] | 100 | 1.86 |  |  |  | 1.85
31 | Cc1cc(F)c(-n2cnc3nc(-c4cncc(F)c4)sc3c2=O)cc1SCC(F)(F)F [Compound 73, 6-{2-Fluoro-4-methyl-5-[(2,2,2-trifluoroethyl)sulphanyl]phenyl}-2-(5-fluoropyridin-3-yl)[1,3]thiazolo[4,5-d]pyrimidin-7(6H)-one] |  |  | 90 | 3.36 | 3.25 | 
32 | O=c1c2sc(-c3cccnc3)nc2ncn1-c1ccc(Cl)cc1 [Compound 43] | 100 | 2.05 |  |  |  | 2.06
33 | O=c1c2sc(-c3cccnc3)nc2ncn1-c1ccccc1[S+]([O-])CC(F)(F)F (stereo not shown) [Compound 69, 2-(Pyridin-3-yl)-6-{2-[(2,2,2-trifluoroethyl)sulphinyl]phenyl}[1,3]thiazolo[4,5-d]pyrimidin-7(6H)-one] |  |  |  | 1.74 | 1.75 | 
34 | Cc1ccc(-n2cnc3nc(-c4cncnc4)sc3c2=O)cc1 [Compound 75] |  | 1.80 |  |  |  | 1.72
35 | CN(C)C(=O)c1cc2cc(-n3cnc4nc(-c5cccnc5)sc4c3=O)ccc2s1 [Compound 65] |  | 1.70 |  |  |  | 1.70
36 | CN(C)S(=O)(=O)c1cccc(-n2cnc3nc(-c4cccnc4)sc3c2=O)c1 [Compound 42, N,N-Dimethyl-3-[7-oxo-2-(pyridin-3-yl)[1,3]thiazolo[4,5-d]pyrimidin-6(7H)-yl]benzenesulphonamide] |  |  |  | 1.63 | 1.72 | 
37 | COc1cccc(Cn2cnc3nc(-c4cccnc4)sc3c2=O)c1 [Compound 32] |  | 1.91 |  |  |  | 1.92
38 | O=c1c2sc(-c3cccnc3)nc2ncn1Cc1cccc(C(F)(F)F)c1 [Compound 28, 2-(Pyridin-3-yl)-6-[3-(trifluoromethyl)benzyl][1,3]thiazolo[4,5-d]pyrimidin-7(6H)-one] |  |  |  | 2.47 | 2.43 | 
39 | Cc1nc(Cn2cnc3nc(-c4cccnc4)sc3c2=O)cs1 [Compound 38, 6-[(2-Methyl-1,3-thiazol-4-yl)methyl]-2-(pyridin-3-yl)[1,3]thiazolo[4,5-d]pyrimidin-7(6H)-one] |  |  |  | 1.36 | 1.42 | 
